Measured values taken from ChEMBL document CHEMBL1150352, “Novel substituted aminoalkylguanidines as potential antihyperglycemic and food intake-reducing agents” (2008).

Experiments:
Type in all cases: functional
Settings in all cases: route subcutaneous
Mus musculus [1] = assay: Antihyperglycemic activity in C57BL/KsJ db/db mouse assessed as reduction in water consumption at 25 mg/kg, sc administered twice a day for 4 days and once on day 5 relative to control; design: scale not given: the % may be the effect or the level left
Mus musculus [2] = assay: Antihyperglycemic activity in C57BL/KsJ db/db mouse assessed as reduction in food intake at 25 mg/kg, sc administered twice a day for 4 days and once on day 5 relative to control; design: scale not given: the % may be the effect or the level left
Mus musculus [3] = assay: Antihyperglycemic activity in C57BL/KsJ db/db mouse at 25 mg/kg, sc administered twice a day for 4 days once on day 5 immediately after load injection by insulin suppression test relative to control
Mus musculus [4] = assay: Antihyperglycemic activity in C57BL/KsJ db/db mouse at 25 mg/kg, sc administered twice a day for 4 days and once on day 5 after 60 mins of load injection by insulin suppression test relative to control
Mus musculus [5] = assay: Antihyperglycemic activity in C57BL/KsJ db/db mouse at 13 mg/kg, sc administered twice a day for 4 days once on day 5 by insulin suppression test relative to control
Mus musculus [6] = assay: Antihyperglycemic activity in C57BL/KsJ db/db mouse at 130 mg/kg, sc administered twice a day for 4 days once on day 5 by insulin suppression test relative to control
Mus musculus [7] = assay: Antihyperglycemic activity in C57BL/KsJ db/db mouse at 5 mg/kg, sc administered twice a day for 4 days once on day 5 after 60 mins of load injection by insulin suppression test relative to control
Mus musculus [8] = assay: Antihyperglycemic activity in C57BL/KsJ db/db mouse at 5 mg/kg, sc administered twice a day for 4 days once on day 5 immediately after load injection by insulin suppression test relative to control

Structure (SMILES) | Activity (Mus musculus [1]) [%] | Activity (Mus musculus [2]) [%] | Activity (Mus musculus [3]) [%] | Activity (Mus musculus [4]) [%] | Activity (Mus musculus [5]) [%] | Activity (Mus musculus [6]) [%] | Activity (Mus musculus [7]) [%] | Activity (Mus musculus [8]) [%]
CC(C)=CCNC(=N)NCCCCN | -53 | -37 | -13 | -11 |  |  |  | 
N=C(NCCCCN)NCCCc1ccccc1 | -44 | -33 | 12 | -8 |  |  |  | 
CC(C)CCNC(=N)NCCCCCCN | -24 | -14 | -17 | -24 |  |  |  | 
N=C(NCCCCCCBr)NCC1CC1 | -30 | -22 | -12 | -20 |  |  |  | 
CC(C)=CCNC(=N)NCCCCCCN | -53 | -19 | -31 | -13 |  |  |  | 
N=C(NCC1CCC(CN)CC1)NCC1CC1 (configuration not stated) | -59 | -40 | -29 | -43 |  |  |  | 
CC(C)=CCNC(=N)N[C@H]1CC[C@H](N)CC1 | -44 | -27 | -14 | -22 |  |  |  | 
CC(C)=CCNC(=N)NCCCCCN | -57 | -41 | -15 | -13 |  |  |  | 
CC(C)=CCNC(=N)NCC1CCC(CN)CC1 (configuration not stated) | -29 | -21 | -8 | -29 |  |  |  | 
N=C(NCCCCCCN)NCC1CC1 | -45 | -19 | -42 | -18 |  |  |  | 
CN1CCN(/C(=N\c2ccc(F)cc2)NCCCCCCN)CC1 | -35 | -14 | -21 | -12 |  |  |  | 
NCCCCCCN/C(=N/c1ccc(F)cc1)N1CCCCC1 | -41 | -22 | -15 | -8 |  |  |  | 
CN(C)C(=N)NC(=N)N [METFORMIN] |  |  |  |  | -11 | -22 |  | 
CN(CCOc1ccc(CC2SC(=O)NC2=O)cc1)c1ccccn1 (configuration not stated) [ROSIGLITAZONE] |  |  |  |  |  |  | -39 | -29
